Legend:
Format in all cases: in vivo
hot plate = hot plate technique (central analgesic); settings: for Potency: Relative to indomethacin at 120 min.
[1] = tested on: acetic acid-induced abdominal writhing; experiment: acetic acid-induced abdominal writhing technique (peripheral analgesic); settings: for Potency: Relative to indomethacin; for % Inhibition/protection / Writing reflex ± SEM: in vivo; as to % Inhibition/protection: test concentration or dose not given here; as to Writing reflex ± SEM: test concentration or dose not given here
animal gastric mucosa = experiment: ulcerogenic liability; settings: in vivo
[2] = tested on: carrageenan-induced paw edema; experiment: carrageenan-induced paw edema technique (anti-inflammatory); settings: for Observed (1/property): 1/(% inhibition of edema thickness at 3 h effect); as to Observed (1/property): test concentration or dose not given here; as to Potency (% Inhibition relative to indomethacin at 3 h effect): test concentration or dose not given here
From the text: Anti-inflammatory properties of the ibuprofen-amino acid conjugate (5a-j) and ibuprofen-amino acid-4-aminophenol conjugates 7a-j were studied by the standard carrageenan-induced paw edema technique (Naumov, R. N. et al., Bioorg. Med. Chem. Lett. 2015, 25, 2314-2320; Tiwari, A. D. et al., Org. Biomol. Chem. 2014, 12, 7238-7249).

[3] = % inhibition of edema thickness at 3 h effect, Table 7
[4] = anti-inflammatory property (% inhibition of edema at 3 h), Table 8

## CC(C)Cc1ccc(C(C)C(=O)NCC(=O)O)cc1 (stereo not drawn) [Compound 5a, (2-(4-Isobutylphenyl)propanoyl)glycine]
Hot plate; After 30 min.
  % protection: (15.3) %
  Latency period ± SEM: 2.79 ± 0.03 s
Hot plate; After 60 min.
  % protection: (28.3) %
  Latency period ± SEM: 2.86 ± 0.04 s
Hot plate; After 90 min.
  % protection: (29.1) %
  Latency period ± SEM: 2.84 ± 0.02 s
Hot plate; After 120 min.
  % protection: (29.7) %
  Latency period ± SEM: 2.84 ± 0.05 s
Hot plate
  Potency: 52
[1]
  Potency: 83
  % Inhibition/protection: 45.6%
  Writing reflex ± SEM: 52.9 ± 1.3
Animal gastric mucosa
  % Incidence of ulcer divided by 10: 0
  Average of ulcer number: 0
  Average severity of ulcer: 0
  Number of animals with ulcer: 0
  Ulcer index: 0
[2]; Table 7
  Observed (1/property): 0.01389
[2]; 1 h
  % inhibition of edema: 53%
  Mean edema thickness: 0.58 ± 0.02 mm
[2]; 2 h
  % inhibition of edema: 66%
  Mean edema thickness: 0.51 ± 0.04 mm
[2]; 3 h
  % inhibition of edema: 72%
  Mean edema thickness: 0.37 ± 0.06 mm
[2]; 4 h
  % inhibition of edema: 67%
  Mean edema thickness: 0.41 ± 0.04 mm
[2]; 24 h
  % inhibition of edema: 68%
  Mean edema thickness: 0.06 ± 0.01 mm
[2]; [3]
  Observed property: 72%
[2]; [4]
  Observed property: 72%
[2]
  Potency (% Inhibition relative to indomethacin at 3 h effect): 90%

## CC(C)Cc1ccc(C(C)C(=O)N[C@H](C(=O)O)C(C)C)cc1 (stereo partly drawn) [Compound 5h]
Hot plate; After 30 min.
  % protection: (12.8) %
  Latency period ± SEM: 2.73 ± 0.05 s
Hot plate; After 60 min.
  % protection: (20.6) %
  Latency period ± SEM: 2.69 ± 0.04 s
Hot plate; After 90 min.
  % protection: (9.5) %
  Latency period ± SEM: 2.41 ± 0.02 s
Hot plate; After 120 min.
  % protection: (6.4) %
  Latency period ± SEM: 2.33 ± 0.02 s
Hot plate
  Potency: 11
[1]
  Potency: 54
  % Inhibition/protection: 29.6%
  Writing reflex ± SEM: 68.5 ± 2.0
[2]; Table 7
  Observed (1/property): 0.01754
[2]; 1 h
  % inhibition of edema: 11%
  Mean edema thickness: 1.09 ± 0.08 mm
[2]; 2 h
  % inhibition of edema: 14%
  Mean edema thickness: 1.30 ± 0.07 mm
[2]; 3 h
  % inhibition of edema: 57%
  Mean edema thickness: 0.56 ± 0.05 mm
[2]; 4 h
  % inhibition of edema: 49%
  Mean edema thickness: 0.64 ± 0.06 mm
[2]; 24 h
  % inhibition of edema: 84%
  Mean edema thickness: 0.03 ± 0.02 mm
[2]; [3]
  Observed property: 57%
[2]; [4]
  Observed property: 57%
[2]
  Potency (% Inhibition relative to indomethacin at 3 h effect): 72%

## CC(C)Cc1ccc(C(C)C(=O)N[C@@H](C)C(=O)O)cc1 (stereo partly drawn) [Compound 5b, (2-(4-Isobutylphenyl)propanoyl)-L-alanine]
Hot plate; After 30 min.
  % protection: (12.8) %
  Latency period ± SEM: 2.73 ± 0.03 s
Hot plate; After 60 min.
  % protection: (17.0) %
  Latency period ± SEM: 2.61 ± 0.12 s
Hot plate; After 90 min.
  % protection: (20.9) %
  Latency period ± SEM: 2.66 ± 0.01 s
Hot plate; After 120 min.
  % protection: (21.9) %
  Latency period ± SEM: 2.67 ± 0.06 s
Hot plate
  Potency: 39
[1]
  Potency: 80
  % Inhibition/protection: 43.8%
  Writing reflex ± SEM: 54.7 ± 2.0
[2]; Table 7
  Observed (1/property): 0.01923
[2]; 1 h
  % inhibition of edema: 34%
  Mean edema thickness: 0.81 ± 0.04 mm
[2]; 2 h
  % inhibition of edema: 37%
  Mean edema thickness: 0.95 ± 0.02 mm
[2]; 3 h
  % inhibition of edema: 52%
  Mean edema thickness: 0.63 ± 0.01 mm
[2]; 4 h
  % inhibition of edema: 51%
  Mean edema thickness: 0.61 ± 0.03 mm
[2]; 24 h
  % inhibition of edema: 32%
  Mean edema thickness: 0.13 ± 0.03 mm
[2]; [3]
  Observed property: 52%
[2]; [4]
  Observed property: 52%
[2]
  Potency (% Inhibition relative to indomethacin at 3 h effect): 65%

## CC(C)Cc1ccc(C(C)C(=O)N[C@@H](Cc2ccccc2)C(=O)O)cc1 (stereo partly drawn) [Compound 5e, (2-(4-Isobutylphenyl)propanoyl)-L-phenylalanine]
Hot plate; After 30 min.
  % protection: (24.0) %
  Latency period ± SEM: 3.00 ± 0.04 s
Hot plate; After 60 min.
  % protection: (30.5) %
  Latency period ± SEM: 2.91 ± 0.01 s
Hot plate; After 90 min.
  % protection: (35.5) %
  Latency period ± SEM: 2.98 ± 0.03 s
Hot plate; After 120 min.
  % protection: (48.4) %
  Latency period ± SEM: 3.25 ± 0.02 s
Hot plate
  Potency: 86
[1]
  Potency: 84
  % Inhibition/protection: 46.0%
  Writing reflex ± SEM: 52.5 ± 1.2
[2]; Table 7
  Observed (1/property): 0.01613
[2]; 1 h
  % inhibition of edema: 25%
  Mean edema thickness: 0.92 ± 0.07 mm
[2]; 2 h
  % inhibition of edema: 19%
  Mean edema thickness: 1.22 ± 0.08 mm
[2]; 3 h
  % inhibition of edema: 62%
  Mean edema thickness: 0.50 ± 0.04 mm
[2]; 4 h
  % inhibition of edema: 30%
  Mean edema thickness: 0.88 ± 0.05 mm
[2]; 24 h
  % inhibition of edema: 74%
  Mean edema thickness: 0.05 ± 0.02 mm
[2]; [3]
  Observed property: 62%
[2]; [4]
  Observed property: 62%
[2]
  Potency (% Inhibition relative to indomethacin at 3 h effect): 78%

## CC(C)Cc1ccc(C(C)C(=O)NCCC(=O)O)cc1 (stereo not drawn) [Compound 5c, 3-(2-(4-Isobutylphenyl)propanamido)propanoic acid]
Hot plate; After 30 min.
  % protection: (16.5) %
  Latency period ± SEM: 2.82 ± 0.04 s
Hot plate; After 60 min.
  % protection: (35.0) %
  Latency period ± SEM: 3.01 ± 0.02 s
Hot plate; After 90 min.
  % protection: (20.5) %
  Latency period ± SEM: 2.65 ± 0.05 s
Hot plate; After 120 min.
  % protection: (20.1) %
  Latency period ± SEM: 2.63 ± 0.10 s
Hot plate
  Potency: 36
[1]
  Potency: 8
  % Inhibition/protection: 4.2%
  Writing reflex ± SEM: 93.2 ± 1.4
[2]; Table 7
  Observed (1/property): 0.01887
[2]; 1 h
  % inhibition of edema: 43%
  Mean edema thickness: 0.70 ± 0.03 mm
[2]; 2 h
  % inhibition of edema: 29%
  Mean edema thickness: 1.07 ± 0.07 mm
[2]; 3 h
  % inhibition of edema: 53%
  Mean edema thickness: 0.61 ± 0.04 mm
[2]; 4 h
  % inhibition of edema: 36%
  Mean edema thickness: 0.80 ± 0.03 mm
[2]; 24 h
  % inhibition of edema: 21%
  Mean edema thickness: 0.15 ± 0.01 mm
[2]; [3]
  Observed property: 53%
[2]; [4]
  Observed property: 53%
[2]
  Potency (% Inhibition relative to indomethacin at 3 h effect): 66%

## CSCC[C@H](NC(=O)C(C)c1ccc(CC(C)C)cc1)C(=O)O (stereo partly drawn) [Compound 5i, (2-(4-Isobutylphenyl)propanoyl)-L-methionine]
Hot plate; After 30 min.
  % protection: (32.2) %
  Latency period ± SEM: 3.20 ± 0.03 s
Hot plate; After 60 min.
  % protection: (51.1) %
  Latency period ± SEM: 3.35 ± 0.06 s
Hot plate; After 90 min.
  % protection: (61.4) %
  Latency period ± SEM: 3.55 ± 0.07 s
Hot plate; After 120 min.
  % protection: (13.2) %
  Latency period ± SEM: 2.48 ± 0.04 s
Hot plate
  Potency: 23
[1]
  Potency: 40
  % Inhibition/protection: 22.2%
  Writing reflex ± SEM: 75.7 ± 1.9
[2]; Table 7
  Observed (1/property): 0.02222
[2]; 1 h
  % inhibition of edema: 24%
  Mean edema thickness: 0.93 ± 0.04 mm
[2]; 2 h
  % inhibition of edema: 54%
  Mean edema thickness: 0.69 ± 0.05 mm
[2]; 3 h
  % inhibition of edema: 45%
  Mean edema thickness: 0.71 ± 0.04 mm
[2]; 4 h
  % inhibition of edema: 12%
  Mean edema thickness: 1.10 ± 0.06 mm
[2]; 24 h
  % inhibition of edema: 79%
  Mean edema thickness: 0.04 ± 0.01 mm
[2]; [3]
  Observed property: 45%
[2]; [4]
  Observed property: 45%
[2]
  Potency (% Inhibition relative to indomethacin at 3 h effect): 56%

## CC[C@H](C)C(NC(=O)C(C)c1ccc(CC(C)C)cc1)C(=O)O (stereo in doubt) [Compound 5f, (2-(4-Isobutylphenyl)propanoyl)-L-isoleucine]
Hot plate; After 30 min.
  % protection: (14.9) %
  Latency period ± SEM: 2.78 ± 0.05 s
Hot plate; After 60 min.
  % protection: (15.2) %
  Latency period ± SEM: 2.57 ± 0.07 s
Hot plate; After 90 min.
  % protection: (25.9) %
  Latency period ± SEM: 2.77 ± 0.05 s
Hot plate; After 120 min.
  % protection: (48.9) %
  Latency period ± SEM: 3.26 ± 0.04 s
Hot plate
  Potency: 86
[1]
  Potency: 85
  % Inhibition/protection: 46.8%
  Writing reflex ± SEM: 51.8 ± 1.6
[2]; Table 7
  Observed (1/property): 0.01613
[2]; 1 h
  % inhibition of edema: 27%
  Mean edema thickness: 0.90 ± 0.05 mm
[2]; 2 h
  % inhibition of edema: 29%
  Mean edema thickness: 1.07 ± 0.06 mm
[2]; 3 h
  % inhibition of edema: 62%
  Mean edema thickness: 0.50 ± 0.03 mm
[2]; 4 h
  % inhibition of edema: 29%
  Mean edema thickness: 0.89 ± 0.04 mm
[2]; 24 h
  % inhibition of edema: 47%
  Mean edema thickness: 0.10 ± 0.03 mm
[2]; [3]
  Observed property: 62%
[2]; [4]
  Observed property: 62%
[2]
  Potency (% Inhibition relative to indomethacin at 3 h effect): 78%

## CC(C)Cc1ccc(C(C)C(=O)N[C@@H](CC(C)C)C(=O)O)cc1 (stereo partly drawn) [Compound 5g]
Hot plate; After 30 min.
  % protection: (27.7) %
  Latency period ± SEM: 3.09 ± 0.04 s
Hot plate; After 60 min.
  % protection: (28.7) %
  Latency period ± SEM: 2.87 ± 0.03 s
Hot plate; After 90 min.
  % protection: (4.1) %
  Latency period ± SEM: 2.29 ± 0.05 s
Hot plate; After 120 min.
  % protection: (3.7) %
  Latency period ± SEM: 2.27 ± 0.03 s
Hot plate
  Potency: 7
[1]
  Potency: 89
  % Inhibition/protection: 48.9%
  Writing reflex ± SEM: 49.7 ± 1.2
[2]; Table 7
  Observed (1/property): 0.01724
[2]; 1 h
  % inhibition of edema: 5%
  Mean edema thickness: 1.17 ± 0.07 mm
[2]; 2 h
  % inhibition of edema: 24%
  Mean edema thickness: 1.15 ± 0.06 mm
[2]; 3 h
  % inhibition of edema: 58%
  Mean edema thickness: 0.55 ± 0.04 mm
[2]; 4 h
  % inhibition of edema: 40%
  Mean edema thickness: 0.75 ± 0.05 mm
[2]; 24 h
  % inhibition of edema: 42%
  Mean edema thickness: 0.11 ± 0.04 mm
[2]; [3]
  Observed property: 58%
[2]; [4]
  Observed property: 58%
[2]
  Potency (% Inhibition relative to indomethacin at 3 h effect): 73%
